Assay results taken from patent US10071975B2, “Macrocyclic amidinourea derivatives, methods of preparation and uses thereof as chitinase inhibitors” (CYGNET BIOSCIENCES B.V., priority 2013, dated 2018).
Values after ≈ are worked out from the molar mass of the structure shown.

Key:
[1] = system: C. albicans fluconazole resistant strains; experiment: microbe, parasite or virus in culture; type: cell-based; details: Candida albicans, 24 h
[2] = system: C. glabrata fluconazole resistant strains; experiment: microbe, parasite or virus in culture; type: cell-based, Candida glabrata; details: Nakaseomyces glabratus, 24 h
[3] = biological target: chitinase enzyme extracted from Trichoderma viride; experiment: Chitinase inhibition assay (NP-GlcNAc substrate); type: biochemical
Description: Chitinase inhibition assays were conducted against an example of the GH18 family of chitinases, i.e the chitinase enzyme extracted from Trichoderma viride. This enzyme has an high degree of identity compared to chitinase 4 of Candida albicans, and is commercially available from Sigma-Aldrich (catalogue ID: C8241).
The substrate used was the NP-GlcNAc (Sigma-Aldrich, catalogue ID: N9376) dissolved in MES 50 mM at pH6.0; the final concentration was 250 μM. The enzyme was resuspended at 0.11 mg/ml in MES 50 mM at pH 6.0, with a final concentration for the assay of 73 nM diluting with MES 50 mM and BSA 20 μg/ml at pH 6.0. A stock solution of the inhibitors was prepared at 50 mM in DMSO 100%.
The mixture with the inhibitor at various concentrations and the enzyme was prepared directly into the reading plate and left to incubate at room temperature for 20 minutes or three hours. At the end of the incubation times, the substrate was added and the reading was conducted by recording the values up to a maximum time of 10 minutes. The substrate concentration was measured by reading UV absorption at 300 nm (εM^300: 11100), while, the product of hydrolysis were measured at 400 nm (ΔεM^400: 2120). Both IC50 and Ki can be calculated.

C. albicans = experiment: Antimicrobial susceptibility testing (microdilution MIC90), C. albicans strains; type: cell-based; details: Candida albicans; C. albicans (22 strains tested); 24 h, visually and spectrophotometrically
Description: (§1) Sterile plastic microtitration plates containing flat-bottomed wells were used. The plates contained serial dilution of the antifungal agents with a volume of assay medium of 100 μL/well. Two drug-free medium wells were used as sterility and growth controls. The trays were inoculated with 100 μL/well of the final inoculum, with the exception of sterility control wells. […] The microtitration plates were incubated at 37° C. for 24 h. The minimal inhibitory concentrations (MICs) were determined at 24 h both visually and spectrophotometrically measuring the turbidity at 595 nm with a Varian model 1475 spectrophotometer. Results of biological tests are shown in Table 2, biological data are reported as MIC90 that is the minimum concentration required to inhibit the growth of at least the 90% of the strains tested for each species.

C. guilliermondii = experiment: Antimicrobial susceptibility testing (microdilution MIC90), C. guilliermondii strains; type: cell-based, Candida guilliermondii; details: Meyerozyma guilliermondii; C. guilliermondii (10 strains tested); 24 h
Description: as §1

C. krusei = experiment: Antimicrobial susceptibility testing (microdilution MIC90), C. krusei strains; type: cell-based, Candida krusei; details: Pichia kudriavzevii; C. krusei (13 strains tested); 24 h; read-out: MIC90
Description: as §1

C. parapsilosis = experiment: Antimicrobial susceptibility testing (microdilution MIC90), C. parapsilosis strains; type: cell-based, Candida parapsilosis; details: Lodderomyces parapsilosis; C. parapsilosis (24 strains tested); 24 h
Description: as §1

C. tropicalis = experiment: Antimicrobial susceptibility testing (microdilution MIC90), C. tropicalis strains; type: cell-based; details: Candida tropicalis; C. tropicalis (11 strains tested); 24 h
Description: as §1

C. kefyr = experiment: Antimicrobial susceptibility testing (microdilution MIC90), C. kefyr strains; type: cell-based, Candida kefyr; details: Kluyveromyces marxianus; C. kefyr (10 strains tested); 24 h
Description: as §1

C. glabrata = experiment: Antimicrobial susceptibility testing (microdilution MIC90), C. glabrata strains; type: cell-based, Candida glabrata; details: Nakaseomyces glabratus; C. glabrata (26 strains tested); 24 h
Description: as §1

[4] = strain DSY284, ERG11 Mutation, mean of three measurements
[5] = strain DSY289, ERG11 Mutation (2)
[6] = strain DSY291, ERG11 Mutation (2)
[7] = strain DSY292, ERG11 Mutation (3)
[8] = strain DSY751, ↑MDR1, ERG11 Mutation
[9] = Enz.-inhib. incubation time 3 h
[10] = Enz.-inhib. incubation time 20 min

Compound	IC50 [3, 9]	Ki [3, 9]	MIC90 (C. albicans)	MIC90 (C. guilliermondii)	MIC90 (C. krusei)	MIC90 (C. parapsilosis)	MIC90 (C. tropicalis)	MIC90 (C. kefyr)	MIC90 (C. glabrata)	IC50 [3, 10]	Ki [3, 10]	also measured
C[C@@H](c1ncncc1F)[C@](O)(Cn1cncn1)c1ccc(F)cc1F [VOR, Voriconazole, reference compound]	–	–	–	–	–	–	–	–	–	–	–	MIC [1, 4]: 4 µg/mL (≈ 11.5 µM); MIC [1, 5]: 8 µg/mL (≈ 22.9 µM); MIC [1, 6]: 0.03 µg/mL (≈ 0.0859 µM); MIC [1, 7]: 2 µg/mL (≈ 5.73 µM); MIC ([1]; strain DSY296, ERG11 Mutation): 8 µg/mL (≈ 22.9 µM); MIC ([1]; strain DSY348, ERG11 Mutation): 0.25 µg/mL (≈ 0.716 µM); MIC ([1]; strain DSY732, ↑CDR1-CDR2): 0.25 µg/mL (≈ 0.716 µM); MIC ([1]; strain DSY735, ↑CDR1-CDR2): 2 µg/mL (≈ 5.73 µM); MIC ([1]; strain DSY750, ↑MDR1): 0.016 µg/mL (≈ 0.0458 µM); MIC [1, 8]: 0.25 µg/mL (≈ 0.716 µM); MIC ([1]; strain DSY775, ERG11 Mutation): 8 µg/mL (≈ 22.9 µM); MIC ([1]; strain DSY2323, ↑CDR2-MDR1): 0.25 µg/mL (≈ 0.716 µM); MIC ([2]; strain DSY530, ↑CDR1): 0.5 µg/mL (≈ 1.43 µM); MIC ([2]; strain DSY754, ↑CDR1): 2 µg/mL (≈ 5.73 µM); MIC ([2]; strain DSY756, ↑CDR1-CDR2-SNQ2): 4 µg/mL (≈ 11.5 µM); MIC ([2]; strain DSY2254, ↑CDR1-CDR2): 2 µg/mL (≈ 5.73 µM)
C/C=C/CNC(=N)NCCCCCCN1CCCCCCCCNC(=N)NC1=O [Compound 36, 1-[(E)-but-2-enyl]-3-[6-(4-imino-2-oxo-1,3,5-triazacyclotridec-1-yl)hexyl]guanidine]	111 µM	35.8 µM	–	–	–	–	–	–	–	–	–	–
C/C=C/CNC(=N)NCCCCCCCCN1CCCc2cccc(c2)COc2ccccc2CNC(=N)NC1=O [Example 23, 1-[(2E)-but-2-en-1-yl]-3-(8-{12-imino-14-oxo-3-oxa-11,13,15-triazatricyclo[17.3.1.0^4,9]tricosa-1(23),4(9),5,7,19,21-hexaen-15-yl}octyl)guanidine]	–	–	256 µg/mL (≈ 456 µM)	256 µg/mL (≈ 456 µM)	256 µg/mL (≈ 456 µM)	256 µg/mL (≈ 456 µM)	256 µg/mL (≈ 456 µM)	256 µg/mL (≈ 456 µM)	128 µg/mL (≈ 228 µM)	–	–	–
N=C(NCCCCCCCCN1CCCCCCCCNC(=N)NC1=O)NCC1CC1 [Compound 34, 1-(cyclopropylmethyl)-3-[8-(4-imino-2-oxo-1,3,5-triazacyclotridec-1-yl)octyl]guanidine]	130 µM	42 µM	–	–	–	–	–	–	–	252 µM	81.4 µM	–
C=C(C)CNC(=N)NCCCCCCN1CCCCCCCCNC(=N)NC1=O [Compound 37, 1-[6-(4-imino-2-oxo-1,3,5-triazacyclotridec-1-yl)hexyl]-3-(2-methylprop-2-enyl)guanidine]	108 µM	34.8 µM	–	–	–	–	–	–	–	276 µM	81.4 µM	–
C/C=C/CNC(=N)NCCCCCCCCN1CCCCCOC(=O)CCNC(=N)NC1=O [Example 19, 1-[(E)-but-2-enyl]-3-[8-(6-imino-2,8-dioxo-1-oxa-5,7,9-triazacyclotetradec-9-yl)octyl]guanidine]	–	–	32 µg/mL (≈ 68.7 µM)	32 µg/mL (≈ 68.7 µM)	64 µg/mL (≈ 137 µM)	32 µg/mL (≈ 68.7 µM)	32 µg/mL (≈ 68.7 µM)	32 µg/mL (≈ 68.7 µM)	64 µg/mL (≈ 137 µM)	–	–	MIC [1, 4]: 16 µg/mL (≈ 34.4 µM); MIC [1, 5]: 8 µg/mL (≈ 17.2 µM); MIC [1, 6]: 8 µg/mL (≈ 17.2 µM); MIC [1, 7]: 16 µg/mL (≈ 34.4 µM); MIC ([1]; strain DSY296, ERG11 Mutation): 16 µg/mL (≈ 34.4 µM); MIC ([1]; strain DSY348, ERG11 Mutation): 8 µg/mL (≈ 17.2 µM); MIC ([1]; strain DSY732, ↑CDR1-CDR2): 8 µg/mL (≈ 17.2 µM); MIC ([1]; strain DSY735, ↑CDR1-CDR2): 8 µg/mL (≈ 17.2 µM); MIC ([1]; strain DSY750, ↑MDR1): 16 µg/mL (≈ 34.4 µM); MIC [1, 8]: 16 µg/mL (≈ 34.4 µM); MIC ([1]; strain DSY775, ERG11 Mutation): 16 µg/mL (≈ 34.4 µM); MIC ([1]; strain DSY2323, ↑CDR2-MDR1): 16 µg/mL (≈ 34.4 µM); MIC ([2]; strain DSY530, ↑CDR1): 64 µg/mL (≈ 137 µM); MIC ([2]; strain DSY754, ↑CDR1): 64 µg/mL (≈ 137 µM); MIC ([2]; strain DSY756, ↑CDR1-CDR2-SNQ2): 128 µg/mL (≈ 275 µM); MIC ([2]; strain DSY2254, ↑CDR1-CDR2): 128 µg/mL (≈ 275 µM); MIC ([2]; strain DSY2271, ↑CDR2): 64 µg/mL (≈ 137 µM)
C/C=C/CNC(=N)NCCCCCCCCN1CCCc2ccccc2COc2ccccc2CNC(=N)NC1=O [Example 22, 1-[(2E)-but-2-en-1-yl]-3-(8-{16-imino-14-oxo-2-oxa-13,15,17-triazatricyclo[17.4.0.0^4,9]tricosa-1(19),4(9),5,7,20,22-hexaen-13-yl}octyl)guanidine]	–	–	64 µg/mL (≈ 114 µM)	64 µg/mL (≈ 114 µM)	256 µg/mL (≈ 456 µM)	64 µg/mL (≈ 114 µM)	128 µg/mL (≈ 228 µM)	128 µg/mL (≈ 228 µM)	128 µg/mL (≈ 228 µM)	–	–	–
C/C=C/CNC(=N)NCCCCCCCCN1CCCCCCCCNC(=N)NC1=O [Compound 35, 1-[(E)-but-2-enyl]-3-[8-(4-imino-2-oxo-1,3,5-triazacyclotridec-1-yl)octyl]guanidine]	157 µM	50.8 µM	–	–	–	–	–	–	–	185 µM	59.6 µM	–
C/C=C/CNC(=N)NCCCCCCCCN1CCCCCCOc2ccccc2C(c2cn(-c3ccccc3)nn2)NC(=N)NC1=O (stereo not drawn) [Example 21]	–	–	32 µg/mL (≈ 48.7 µM)	32 µg/mL (≈ 48.7 µM)	128 µg/mL (≈ 195 µM)	32 µg/mL (≈ 48.7 µM)	64 µg/mL (≈ 97.4 µM)	64 µg/mL (≈ 97.4 µM)	64 µg/mL (≈ 97.4 µM)	–	–	–
C/C=C/CNC(=N)NCCCCCCCCN1CCCCCCOC(=O)CCNC(=N)NC1=O [Example 20, 1-[(E)-but-2-enyl]-3-[8-(6-imino-2,8-dioxo-1-oxa-5,7,9-triazacyclopentadec-9-yl)octyl]guanidine]	–	–	16 µg/mL (≈ 33.4 µM)	8 µg/mL (≈ 16.7 µM)	32 µg/mL (≈ 66.7 µM)	8 µg/mL (≈ 16.7 µM)	16 µg/mL (≈ 33.4 µM)	16 µg/mL (≈ 33.4 µM)	32 µg/mL (≈ 66.7 µM)	–	–	–
C#CCNC(=N)NCCCCCCN1CCCCCCCCNC(=N)NC1=O [Compound 39, 1-[6-(4-imino-2-oxo-1,3,5-triazacyclotridec-1-yl)hexyl]-3-prop-2-ynylguanidine]	97 µM	31.3 µM	–	–	–	–	–	–	–	170 µM	55 µM	–
CCNC(=N)NCCCCCCN1CCCCCCCCNC(=N)NC1=O [Compound 38, 1-ethyl-3-[6-(4-imino-2-oxo-1,3,5-triazacyclotridec-1-yl)hexyl]guanidine]	140 µM	45.3 µM	–	–	–	–	–	–	–	508 µM	164 µM	–
